Experimental data from patent US20110166196A1, “TREATMENT AND PROPHYLAXIS OF EPILEPSY AND FEBRILE SEIZURES” (priority 2008, published 2011).

What was measured:
[1] = system: excitatory synapses onto CA1 hippocampal interneurons; experiment: Synaptic failure analysis using minimal stimulation; type: cell-based, rat; settings: capsaicin 1 μM; pre-capsaicin 38.4±3.5%; n=5
Method: Slices were continuously perfused with ACSF warmed to 28-32° C. at a flow rate of 1-2 ml/min. Picrotoxin (100 μM) and D-AP5 (50 μM) were added to block GABAA receptor- and NMDAR-mediated synaptic transmission. Whole-cell patch clamp recordings were made from interneurons identified visually in the CA1 stratum radiatum of the hippocampus. […] Patch pipettes were filled with internal recording solution containing in mM: 117 cesium gluconate, 2.8 NaCl, 5 MgCl2, 20 HEPES, 2 ATP-Na^+, 0.3 GTP-Na^+ and 0.6 EGTA. In some experiments 2 μM capsazepine, 140 nM baicalein, or 250 μM GDPβS were also included in the intracellular patch pipette solution. In experiments with BAPTA-containing patch electrodes, EGTA was omitted from the intracellular solution and 25 or 40 mM BAPTA replaced a corresponding amount of cesium gluconate. EPSCs were stimulated at 0.1 Hz (100 μsec) using a bipolar stainless steel stimulating electrode placed in stratum radiatum at least 200 μm from the recorded cell. […] In early experiments, we measured rectification ratios of EPSCs evoked at +40 mV/−60 mV in the presence of 50 μM D-AP5, measured at the time of peak inward synaptic current seen at −70 mV (Lei and McBain, 2004).

[2] = system: synapses between CA3 and CA1 pyramidal cells; experiment: Field EPSP recordings in hippocampal slices; type: cell-based, rat
Method: The maximal initial slope of fEPSPs was calculated using a LabVIEW-based program (National Instruments). The peak amplitude of each EPSC was measured by comparing a 10 msec time period immediately prior to the stimulus with the peak of the EPSC using this program as well. Occasionally polysynaptic responses were evoked, and in these cases, only the initial monosynaptic event was measured. To positively identify LTD, EPSCs measured every 10 seconds were averaged in 1 minute intervals. EPSC amplitude values were normalized to control pre-HFS EPSC amplitude values (baseline period of at least 5 minutes prior to HFS) and subjected to analysis of variance (ANOVA) repeated measures analysis with a post-hoc Dunnett's test (GraphPad Prism, Version 4). […] EPSC amplitude values 15 to 20 minutes post-HFS were compared between control LTD experiments and those carried out either in transgenic TRPV1^−/− mice, or in the presence of drug using a t-test (unpaired, two-tailed, with Welch's correction if the variances between the groups were unequal). To calculate the effects of capsaicin, 12-(S)-HPETE or WIN 55,212-2 application on basal excitatory glutamatergic transmission, normalized EPSC amplitudes or fEPSP slopes were averaged in the final 5 minutes of drug application and compared with EPSCs/EPSPs 5 minutes prior to drug application. In addition, to measure capsaicin's effects on holding current, the peak change in holding current was measured during bath application of 3 μM capsaicin. The n-values reported refer to the number of slices. All combined data are expressed as mean±the standard error of the mean (s.e.m.).

[3] = system: area CA3 stratum pyramidale; experiment: Heat-induced multi-unit activity (MUA) in hippocampal slices, field-potential recording; type: cell-based, mouse; settings: wild-type slices pre-treated with capsazepine; p<0.05 vs untreated wild-type, n=27
Method: Coronal brain slices, 300-350 μm, were obtained from mice aged postnatal day 14-20 as previously described (Gibson et al., 2008; Gibson et al., 1999; McMahon & Kauer, 1997). Bathing perfusate was identical to previous except where indicated. A Haas-type interface chamber was used for field-potential recordings. Glass micropipettes were filled with 0.9% NaCl (resistance 400-700 kΩ). Simultaneous recordings were made in stratum pyramidale of CA1 and CA3 of each slice. Activity was recorded at 30° C. (5 min), ramped to 42° C. (5 min) and returned to 30° C. (10 min). Signals were amplified, digitally recorded at 10 kHz and stored (LabView).
For field-potential recordings, coronal slices, 350 μm thick, were obtained from P14-15 mice as previously described (Gibson et al., 2008; Gibson et al., 1999; McMahon & Kauer, 1997). Slices were kept at room temperature for at least 30 min until transferred to a 30° C. recording chamber. […] For all field-potential recordings, activity was recorded at 30° C. […] Signals were amplified, digitally recorded at 10 kHz and stored using an in-house LabView based program.
Multi-unit activity (MUA) was high-pass filtered at 500 Hz and spikes were detected using threshold-crossing criteria. […]
All combined data are expressed as mean±the standard error of the mean (s.e.m.). […]

TRPV1 channels = molecular target: T1, TRPV1 channels (Mus musculus, UniProt Q704Y3); experiment: Heat-ramp evoked inward current and depolarization in CA1 pyramidal neurons of wild-type mice; type: cell-based
T1 construct: whole-cell recordings from acutely prepared brain slices from wild type C57BL/6 mice; from tissue; host or cells: acute coronal hippocampal slices from P14-P20 wild-type C57BL/6 mice: CA1 pyramidal neurons
T1 sequence (Q704Y3 whole entry): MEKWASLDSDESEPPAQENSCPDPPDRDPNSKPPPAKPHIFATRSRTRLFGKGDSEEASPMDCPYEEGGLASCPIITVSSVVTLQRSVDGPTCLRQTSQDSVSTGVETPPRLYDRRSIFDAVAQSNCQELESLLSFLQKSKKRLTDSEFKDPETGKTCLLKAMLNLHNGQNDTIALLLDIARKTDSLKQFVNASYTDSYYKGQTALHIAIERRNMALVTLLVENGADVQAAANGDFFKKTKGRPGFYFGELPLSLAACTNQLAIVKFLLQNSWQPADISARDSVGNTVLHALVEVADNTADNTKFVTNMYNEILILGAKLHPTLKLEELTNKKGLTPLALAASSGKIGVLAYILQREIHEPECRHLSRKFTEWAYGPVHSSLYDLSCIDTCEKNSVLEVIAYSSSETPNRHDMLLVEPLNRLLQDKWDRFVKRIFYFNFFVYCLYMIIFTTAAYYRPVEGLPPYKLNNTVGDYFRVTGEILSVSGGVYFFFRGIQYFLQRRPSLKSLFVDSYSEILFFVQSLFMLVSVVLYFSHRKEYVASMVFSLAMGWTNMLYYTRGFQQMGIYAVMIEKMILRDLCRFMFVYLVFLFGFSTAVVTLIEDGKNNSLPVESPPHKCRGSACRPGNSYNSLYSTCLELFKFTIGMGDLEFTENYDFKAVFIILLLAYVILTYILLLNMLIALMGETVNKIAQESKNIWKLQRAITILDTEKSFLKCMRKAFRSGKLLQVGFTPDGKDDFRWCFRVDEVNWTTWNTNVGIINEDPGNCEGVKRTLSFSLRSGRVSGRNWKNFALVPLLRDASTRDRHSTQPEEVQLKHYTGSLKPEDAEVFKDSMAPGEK

Row | SMILES | average synaptic failures in capsaicin [1] | fEPSP slopes after 10-15 minutes in capsaicin ([2]; 1 μM capsaicin, P=0.58, n=5) | effect on synaptic transmission at the CA3-CA1 synapse ([2]; 10 μM capsaicin, often with depression of presynaptic fiber volley) | incidence of heat-induced increased MUA in area CA3 [3] | heat-induced change of membrane potential in CA1 neurons (TRPV1 channels; 2 μM intracellular capsazepine, current clamp, ramp 30 to 42° C., absence 19.7±4.5 mV, n=6) | effect on heat-evoked current in CA1 pyramidal neuron (TRPV1 channels; bath-applied capsazepine 10 μM, voltage clamp, heat ramp)
1 | COc1cc(CNC(=O)CCCCC=CC(C)C)ccc1O [capsaicin, 8-methyl-N-vanillyl-6-nonenamide] | 73.5±7.8% | 102.8±5.4 % of pre-drug control values | depressed synaptic transmission | – | – | –
2 | Oc1cc2c(cc1O)CN(C(=S)NCCc1ccc(Cl)cc1)CCC2 [capsazepine] | – | – | – | mimicked trpv1^−/− incidence rates of increased MUA in area CA3 | 1.0±0.7 mV | blocked
